# Legend:
# in vivo = assay: in vivo; parameters: species or system dog (male beagle); conditions: dog, iv, 5 mg/kg
# Experimental: A male beagle was used for a study of the effect of dipeptidase inhibitors on the urinary recovery of N-formimidoyl thienamycin. In a control study, the dog was given 5 mg/kg IV of the N-formimidoyl thienamycin without inhibitor. A second experiment used the same amount of N-formimidoylthienamycin, but also administered Z-2-isovaleramido-2-butenoic acid in 3 doses, each providing 20 mg/kg of the compound. The first dose was administered just after injection of the N-formimidoylthienamycin, the second at 40 min. and the third at 60 min. […]
# [1] = Urinary recovery of thienamycin co-administered with dipeptidase inhibitor in the mouse; format: in vivo, mouse (Charles River CD, female); conditions: urine, iv, Table II, control, thienamycin 10 mg/kg alone
# Experimental: In addition to this in vitro screen procedure, an in vivo screen was followed to measure the test compound's ability to inhibit metabolism as reflected by increase in urinary recovery of thienamycin from the mouse. The procedure involves co-administration of the test compound by the intravenous or subcutaneous route at a dose-rate of 10-100 mg/kg, with 10 mg/kg thienamycin. Thienamycin recovery in the urine over a 4 hour period is then compared with its recovery in a control group to which test compound was not co-administered.
# Urinary recovery of thienamycin was measured in all cases with the use of a cylinder or disc diffusion assay, conducted in a manner described in U.S. Pat. No. 3,950,357. This bioassay, with Staphylococcus aureus ATCC 6538 as the test organism, has a useful response range from 0.04 μg/ml to 3.0 μg/ml.
# An in vivo assay on the mouse was conducted as follows: 20 g Charles River CD, female mice were injected subcutaneously with the chosen dose of the chemical inhibitor. About two minutes later, the dose of thienamycin was given intravenously. A control of thienamycin above was also conducted. The level of thienamycin in the urine as a % of dose was measured using a bioassay technique. The two test compound numbers are those from Table I. Compound 7 is Z-2-isovaleramido-2-butenoicacid; compound 10 is Z-2-cyclopropylcarboxamido-2-butenoic acid. […]
# Staphalococcus aureus = assay: Systemic efficacy of thienamycin with co-administered inhibitor, Staphylococcus aureus infection in mouse; format: in vivo
dose excreted at 3 h (in vivo) [%],dose excreted at 4 h [1] [%],Structure (SMILES),ED50 (Staphalococcus aureus; THM +100 mg/kg inhibitor (Z-2-isovaleramido-2-butenoic acid)) [mg/kg],ED50 (Staphalococcus aureus; THM alone) [mg/kg]
7.8,–,"C[C@@H](O)[C@H]1C(=O)N2C(C(=O)O)=C(SCCN=CN)C[C@H]12 [N-formimidoyl thienamycin, N-Formimidoyl thienamycin]",–,–
–,25 to 30,C[C@@H](O)[C@H]1C(=O)N2C(C(=O)O)=C(SCCN)C[C@H]12 [Thienamycin],0.06,0.2

# — US4539208A, “Combination of thienamycin-type antibiotics with dipeptidase inhibitors” (Merck & Co., Inc., priority 1981, dated 1985)
